Converted amounts (≈) assume the structure as drawn. “And” between values parts separate entries of the source, which are not always exact repeats. Identical values can stand only once. Like-named read-outs stand apart in the source and are kept apart here.
What was measured:
[1] = system: Staphylococcus aureus ATCC-29213; assay: Broth microdilution MIC/MID 50 against Staphylococcus aureus; type: cell-based
Source text: The clinical and laboratory standards institute Broth Microdilution Methodology was employed, however, the growth medium used was an “RPMI” medium. Additionally, the methods for dilution and antimicrobial susceptibility tests for bacteria that grow aerobically were also followed with the noted exception of testing with alternative media (CLSI document […], CLSI, Wayne, Pa.). […] Under the column, “Isolate” identification beginning with either “GP” or “GN” occur. The “GP” corresponds to Gram-Positive bacteria and the “GN” corresponds to “Gram Negative” bacteria. Each of the organisms are specifically listed after the isolate identification.

[2] = system: Gram-Positive and Gram Negative bacteria; type: cell-based

C[C@H]1COc2c(N3CCN(C)CC3)c(F)cc3c(=O)c(C(=O)O)cn1c23 [Levofloxacin]
MID/MIC (amount of antibiotic) ([1]; GP01 Staphylococcus aureus ATCC 29213, antibiotic-susceptible control strain): 0.12 µg/mL | MIC/MID 50 ([1]; Staphylococcus aureus ATCC 29213 - antibiotic-susceptible control strain): 0.12 µg/mL (≈ 0.332 µM) | MIC/MID 50 ([2]; Citrobacter freundii - antibiotic-susceptible clinical isolate): 0.02 µg/mL (≈ 0.0553 µM) | MIC/MID 50 ([2]; Citrobacter freundii - resistant clinical isolate): 8.00 µg/mL (≈ 22.1 µM) | MIC/MID 50 ([2]; Enterobacter sp - antibiotic-susceptible clinical isolate): 0.12 µg/mL (≈ 0.332 µM) | MIC/MID 50 ([2]; Enterobacter sp - multi-drug resistant clinical isolate): 0.06 µg/mL (≈ 0.166 µM) | MIC/MID 50 ([2]; Enterococcus faecalis - ATCC 29212 antibiotic-susceptible control strain): 2.00 µg/mL (≈ 5.53 µM) | MIC/MID 50 ([2]; Enterococcus faecalis vancomycin-susceptible clinical isolate): 4.00 µg/mL (≈ 11.1 µM) | MIC/MID 50 ([2]; Enterococcus faecium vancomycin-resistant (VanB) clinical isolate): 4.00 µg/mL (≈ 11.1 µM) | MIC/MID 50 ([2]; Enterococcus gallinarum vancomycin-resistant (VanC) clinical isolate): 2.00 µg/mL (≈ 5.53 µM) | MIC/MID 50 ([2]; Escherichia coli ATCC25922 - antibiotic-susceptible type strain): 0.02 µg/mL (≈ 0.0553 µM) | MID/MIC (amount of antibiotic) ([2]; GN01 Escherichia coli ATCC25922, antibiotic-susceptible type strain): 0.015 µg/mL | MID/MIC (amount of antibiotic) ([2]; GN02 Escherichia coli ATCC35218, β-lactamase positive type strain): 0.015 µg/mL | MID/MIC (amount of antibiotic) ([2]; GN06 Enterobacter sp, antibiotic-susceptible clinical isolate): 0.06 µg/mL and 0.12 µg/mL | MID/MIC (amount of antibiotic) ([2]; GN10 Pseudomonas aeruginosa ATCC27853, antibiotic-susceptible type strain): 2 µg/mL | MID/MIC (amount of antibiotic) ([2]; GN11 Pseudomonas aeruginosa, multi-drug resistant clinical isolate): 2 µg/mL | MID/MIC (amount of antibiotic) ([2]; GN12 Stenotrophomonas maltophilia, antibiotic-susceptible clinical isolate): 0.25 µg/mL | MID/MIC (amount of antibiotic) ([2]; GN13 Stenotrophomonas maltophila, antibiotic-resistant clinical isolate): 1 µg/mL | MID/MIC (amount of antibiotic) ([2]; GN14 Burkholderia cepacia, antibiotic-susceptible clinical isolate): 4 µg/mL | MID/MIC (amount of antibiotic) ([2]; GN15 Proteus mirabilis, antibiotic-susceptible clinical isolate): 0.06 µg/mL | MID/MIC (amount of antibiotic) ([2]; GN16 Proteus mirabilis, multi-drug resistant clinical isolate): 2 µg/mL | MID/MIC (amount of antibiotic) ([2]; GN17 Salmonella sp, antibiotic-susceptible clinical isolate): 0.03 µg/mL | MID/MIC (amount of antibiotic) ([2]; GN18 Salmonella sp, multi-drug resistant clinical isolate): 0.06 µg/mL | MID/MIC (amount of antibiotic) ([2]; GN19 Shigella sp, antibiotic-susceptible clinical isolate): 0.03 µg/mL | MID/MIC (amount of antibiotic) ([2]; GN20 Shigella sp, multi-drug resistant clinical isolate): 0.03 µg/mL | MID/MIC (amount of antibiotic) ([2]; GN22 Morganella morganii, multi-drug resistant clinical isolate): 1 µg/mL | MID/MIC (amount of antibiotic) ([2]; GN23 Providencia stuartii, antibiotic-susceptible clinical isolate): 0.06 µg/mL | MID/MIC (amount of antibiotic) ([2]; GN24 Providencia stuartii, multi-drug resistant clinical isolate): 8 µg/mL | MID/MIC (amount of antibiotic) ([2]; GN28 Haemophilus influenzae, β-lactamase negative ampicillin-resistant clinical isolate): 0.06 µg/mL | MID/MIC (amount of antibiotic) ([2]; GN29 Moraxella catarrhalis, β-lactamase positive clinical isolate): 0.06 µg/mL | MID/MIC (amount of antibiotic) ([2]; GN32 Acinetobacter baumanii, multi-drug resistant clinical isolate): 8 µg/mL | MID/MIC (amount of antibiotic) ([2]; GN33 Bacteroides fragilis, antibiotic-susceptible clinical isolate, supplemented with 2% serum and 1 μg/mL Vit K): 0.015 µg/mL | MID/MIC (amount of antibiotic) ([2]; GP02 Staphylococcus aureus ATCC 25923, antibiotic-susceptible control strain): 0.12 µg/mL | MID/MIC (amount of antibiotic) ([2]; GP04 Staphylococcus aureus, methicillin-resistant clinical isolate): 0.12 µg/mL | MID/MIC (amount of antibiotic) ([2]; GP05 Staphylococcus aureus, multi-drug-resistant clinical isolate): 4 µg/mL | MID/MIC (amount of antibiotic) ([2]; GP06 Staphylococcus aureus, teicoplanin-intermediate clinical isolate): 4 µg/mL | MID/MIC (amount of antibiotic) ([2]; GP07 Staphylococcus epidermidis, antibiotic susceptible clinical isolate): 0.12 µg/mL | MID/MIC (amount of antibiotic) ([2]; GP08 Staphylococcus epidermidis, methicillin-resistant clinical isolate): 0.25 µg/mL | MID/MIC (amount of antibiotic) ([2]; GP09 Staphylococcus haemolyticus, antibiotic susceptible clinical isolate): 0.5 µg/mL | MID/MIC (amount of antibiotic) ([2]; GP10 Staphylococcus saprophyticus, antibiotic susceptible clinical isolate): 0.5 µg/mL | MID/MIC (amount of antibiotic) ([2]; GP11 Enterococcus faecalis ATCC 29212, antibiotic-susceptible control strain): 2 µg/mL | MID/MIC (amount of antibiotic) ([2]; GP12 Enterococcus faecalis, vancomycin-susceptible clinical isolate): 4 µg/mL | MID/MIC (amount of antibiotic) ([2]; GP15 Enterococcus faecalis, high-level gentamicin-resistant clinical isolate): >8 µg/mL | MID/MIC (amount of antibiotic) ([2]; GP16 Enterococcus faecium, vancomycin-susceptible clinical isolate): >8 µg/mL | MID/MIC (amount of antibiotic) ([2]; GP17 Enterococcus faecium, vancomycin-resistant (VanA) clinical isolate): 4 µg/mL | MID/MIC (amount of antibiotic) ([2]; GP18 Enterococcus faecium, vancomycin-resistant (VanB) clinical isolate): 2 µg/mL | MID/MIC (amount of antibiotic) ([2]; GP19 Enterococcus gallinarum, vancomycin-resistant (VanC) clinical isolate): 1 µg/mL | MID/MIC (amount of antibiotic) ([2]; GP20 Streptococcus pneumoniae ATCC 49619, antibiotic-susceptible control strain): 1 µg/mL | MID/MIC (amount of antibiotic) ([2]; GP21 Streptococcus pneumoniae, pencillin-susceptible clinical isolate): 0.5 µg/mL | MID/MIC (amount of antibiotic) ([2]; GP22 Streptococcus pneumoniae, penicillin-intermediate clinical isolate): 0.5 µg/mL | MID/MIC (amount of antibiotic) ([2]; GP23 Streptococcus pneumoniae, penicillin-resistant clinical isolate): 0.5 µg/mL and 1 µg/mL | MID/MIC (amount of antibiotic) ([2]; GP25 Streptococcus pyogenes, antibiotic-susceptible clinical isolate): 0.5 µg/mL | MID/MIC (amount of antibiotic) ([2]; GP29 Corynebacterium jeikeium, multi-drug resistant clinical isolate): 0.5 µg/mL

Source: patent US10441608B2, “Continuous methods for treating liquids and manufacturing certain constituents (e.g., nanoparticles) in liquids, apparatuses and nanoparticles and nanoparticle/liquid solution(s) resulting therefrom” (Clene Nanomedicine, Inc., priority 2009, dated 2019)
